This note sets out measurements from patent US6541507B1, “Indolecarboxylic compounds for inducing/stimulating hair growth and/or retarding hair loss” (Societe L'Oreal S.A., priority 1999, dated 2003).

Each structure is given as a SMILES string.

One test concerns the target T1, Type I 5α-reductase (Homo sapiens, UniProt P18405).
T1 construct: made in house; host or cells: COS7 cells (ATCC, CRL 1651), transient transfection with pSG5; 100,000×g pellet of the lysate
T1 sequence (P18405 1-259): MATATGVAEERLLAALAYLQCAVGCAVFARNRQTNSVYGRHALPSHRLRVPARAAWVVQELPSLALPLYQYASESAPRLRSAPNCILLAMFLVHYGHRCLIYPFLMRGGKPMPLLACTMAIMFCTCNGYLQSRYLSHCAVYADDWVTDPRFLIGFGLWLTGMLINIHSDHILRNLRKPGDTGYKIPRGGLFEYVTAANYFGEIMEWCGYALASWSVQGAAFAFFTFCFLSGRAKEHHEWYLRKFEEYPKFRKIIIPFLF
As to the kind of experiment: Inhibition of type I 5α-reductase (14C-testosterone to dihydrotestosterone, transfected COS7 cell lysate). Format: biochemical. An excerpt:
(§1) The coding sequences (complementary deoxyribonucleic acids: cDNAs) of 5α-reductase I and of 5α-reductase II were cloned into the eukaryotic expression vector pSG5 (Stratagene). The enzymes were overexpressed after transient transfection of COS7 cells (ATCC, CRL 1651). The 5α-reductase I and 5α-reductase II cDNAs were obtained by reverse transcription and polymerase chain reaction (PCR) using specific primers from human testicle total RNA (marketed by Clontech).
The primers (SEQ ID NOS.: 1 and 2) used to obtain the 5α-reductase I cDNA were:
+strand: 5′[…] 3′,
−strand: 5′[…] 3′.
(§2) The 5α-reductase I cDNA obtained was inserted, by standard genetic engineering techniques, into the BamHI site of pSG5 and the 5α-reductase II cDNA obtained was inserted into the EcoRI site (see Maniatis et al., Molecular Cloning, Cold Spring Harbor, 1989). […]
(§3) The reaction mixtures were then deposited directly on a silica plate (HPTLC, 60F 254, Merck) and subjected to chromatography (solvent=10% diethyl ether, 90% dichloromethane). They were then analyzed by digital autoradiography (Digital Autoradiography, Berthold).
(§4) The inhibition of the activity of the isoenzymes was measured by calculating the percentage of dihydrotestosterone formed from ^14C-testosterone relative to an untreated control.

A further test addresses T2, Type II 5α-reductase (Homo sapiens, UniProt P31213).
T2 construct: made in house; host or cells: COS7 cells (ATCC, CRL 1651), transient transfection with pSG5; 100,000×g pellet of the lysate
T2 sequence (P31213 1-254): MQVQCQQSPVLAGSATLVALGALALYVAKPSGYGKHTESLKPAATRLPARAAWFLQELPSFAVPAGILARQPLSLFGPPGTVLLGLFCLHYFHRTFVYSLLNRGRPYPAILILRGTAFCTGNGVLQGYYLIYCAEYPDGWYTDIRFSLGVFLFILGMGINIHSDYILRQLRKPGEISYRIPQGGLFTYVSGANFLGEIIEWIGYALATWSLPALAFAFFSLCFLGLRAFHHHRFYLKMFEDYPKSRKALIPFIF
As to the kind of experiment: Inhibition of type II 5α-reductase (14C-testosterone to dihydrotestosterone, transfected COS7 cell lysate). Format: biochemical.
Excerpt: as §1
The primers (SEQ ID NOS.: 3 and 4) used to obtain the 5α-reductase II cDNA were:
+strand: 5′GCGATGCAGGTTCAGTG 3′,
−strand: 5′ATTGTGGGAGCTCTGCT 3′.
as §2, §3, §4

Usually IC50 stands for the concentration that gives 50% inhibition. Low values mean inhibition by little substance, high ones a need for much substance. `COc1cc(OC)c2cc(C(=O)O)[nH]c2c1` [4,6-dimethoxyindole-2-carboxylic acid]: the IC50 at Type I 5α-reductase (40 mM pH 6.5 phosphate buffer, 1 nM 14C-testosterone, 5 mM NADPH, 50 minutes at 37° C.) was 50 µM; against Type II 5α-reductase (40 mM pH 5.5 citrate buffer, 1 nM 14C-testosterone, 5 mM NADPH, 50 minutes at 37° C.) it was above 50 µM. Also, at Type I 5α-reductase (statement in words), the “inhibitory effect on the 5α-reductases (type I)” value is “no inhibitory effect”. Moreover, the “inhibitory effect on the 5α-reductases (type II)” value against Type II 5α-reductase (statement in words) is “no inhibitory effect”.
